Ten compounds from patent US9382306B2, “Octapeptide compounds derived from somatostatin and the therapeutic use thereof” (IPSEN PHARMA S.A.S., priority 2008, dated 2016) can be followed below.

Where “and” joins values, the source holds several entries; their conditions need not be identical. Equal values may be shown once. Bridge positions count the residues as written; N and C are the ends. Square brackets hold non-standard residues; d marks the D form. Peptide text beside a SMILES is read from it. ξ: configuration not given here. dPhe(4-NO2) = N[C@H](Cc1ccc([N+](=O)[O-])cc1)C(=O)O; dPhe(3,5-F2) = N[C@H](Cc1cc(F)cc(F)c1)C(=O)O; dPhe(3-Br) = N[C@H](Cc1cccc(Br)c1)C(=O)O; dPhe(4-Br) = N[C@H](Cc1ccc(Br)cc1)C(=O)O; dPhe(2-Br) = N[C@H](Cc1ccccc1Br)C(=O)O; 2Nal = N[C@@H](Cc1ccc2ccccc2c1)C(=O)O; d2Nal = N[C@H](Cc1ccc2ccccc2c1)C(=O)O; dThr(3ξ) = CC(O)[C@@H](N)C(=O)O; Thr(3ξ) = CC(O)[C@H](N)C(=O)O Where only a bound is given, the exact number is not on record here.

Data set [1] is described as follows: Self-assembly study: putting peptides in solution in water, macroscopic, ATR-FTIR, TEM and SAXS analysis. Format: physicochemical. The conditions noted are these: 3 to 15% by mass of peptide in water; form and diameter of the self-assembled structure, or soluble / insoluble. From the text:
The procedure used comprises three stages: putting the peptides in solution and macroscopic analysis; spectroscopic and microscopic analyses of the structures formed and by small-angle X-ray scattering (SAXS) analyses.
The first stage of the characterization of the derivatives is the production of a range of concentrations from 3 to 15% by mass of peptide in water. Gelling of the solution indicates the presence of self-assembled structures which can be nanotubes but can also be fibres or other self-organised structures.
The object of this stage is to verify the presence of self-assembled structures, to characterize their self-assembly and to visualize them by microscopy.
Infrared spectroscopy makes it possible to obtain information on the method of stacking the peptides in the self-assemblies. The amide band spectrum, reflecting the absorption spectra of the carbonyl functions of the peptide backbone, gives information on the type of hydrogen bond in which these groups are involved (H bonds leading to the formation of the […], a helix or also a loop or random conformation) and consequently on the secondary and tertiary structure of the peptides in solution and self-assembled. The attenuated total reflection technique (ATR-FTIR) uses a crystal on which the solid or liquid sample is deposited. The infrared light is guided through this crystal at an angle which allows it to be reflected several times inside the crystal, which increases the sensitivity of the technique. Due to the performance of this device, it is then possible perform measurements on relatively dilute solutions. The beam penetrates a few microns into the sample deposited on the crystal, which means that only the molecules/structures which are deposited on the surface of the crystal are analyzed. Moreover, this technique is non-destructive.
The assembled structures are then visualized by transmission electron microscopy (TEM). This very powerful technique, allowing magnifications greater than 500,000 times, is one of the few techniques capable of visualizing structures on the nanometric scale. The sample is subjected to an electron beam. The visualization of the transmitted beam is produced either by a photoluminescent screen, or by a CCD camera. The sample in the microscope being under vacuum, it is samples dried after staining with uranyl salts in order to increase contrast which are observed.
The peptide in solution is firstly deposited on a copper grid covered with a film of carbon. After deposition of the materiel, the excess liquid is eliminated. In the same way, the solution of colorant, in our case uranyl acetate, is deposited on the grid, the excess is eliminated and the grid is dried in the open air. It can then be introduced into the microscope.
The samples, liquids or gels, are introduced into a capillary column and subjected to a monochromatic flow of X-rays. The intensity diffused is measured as a function of the scattering angle with respect to the incident angle.
The diffusion patterns thus obtained must be the subject of a correlation with a close theoretical model of the structures present in the sample. In the case where the peptides have self-assembled in the form of hollow nanotubes, the modelling of the experimental data with the theoretical diffusion produced by infinitely long hollow columns makes it possible to determine with precision the diameter of the columns and to estimate their wall thickness (Valery et al. in Biophysical journal, 2004, 86(4), 2484-2501 and Proc. Natl. Acad. Sci., 2003, 100(18) 10258-10262). For polydisperse, nanotubular, fibrilar, micellar or lamellar self-assemblies, it is the correlation of the spectroscopic, microscopic and XR scattering data which makes it possible to estimate a size range for the objects observed.

Data set [2] addresses T1, somatostatin receptors sub-type 5 (Homo sapiens, UniProt P35346).
T1 construct: expressed in transfected cells; membrane preparations
The experiment in a line: Affinity for somatostatin receptors: inhibition of [125I-Tyr11]SRIF-14 binding to membranes of transfected CHO-K1 cells. The conditions noted are these: competitive inhibition of [125I-Tyr11]SRIF-14 binding, 37° C. Here is the method:
(§1) The affinity of the compounds of the invention for the somatostatin receptors is determined by measurement of the inhibition of the bond of [125I-Tyr11]SRIF-14 to membrane preparations of transfected CHO-K1 cells.
(§2) The CHO-K1 cells expressing in a stable fashion each of the sub-types of somatostatin receptors are collected with 0.5 mM of EDTA and centrifuged at 500 g for 5 minutes at 4° C. The pellet is re-suspended in phosphate buffer (PBS) and centrifuged at 500 g for 5 minutes at 4° C. The pellet is re-suspended in Tris 50 mM buffer at pH 7.4 and centrifuged at 500 g for 5 minutes at 4° C. The cells are lyzed by sonication and centrifuged at 39,000 g for 10 minutes. The pellet is re-suspended in Tris 50 mM buffer at pH 7.4, an aliquot is removed for assaying the proteins and the remainder is centrifuged at 50,000 g for 10 minutes. The membranes obtained in this last pellet are stored at −80° C.
(§3) Measurement of the competitive inhibition of the bond of [125I-Tyr11]SRIF-14 (Perkin Elmer) on each of the sub-types of somatostatin receptors is carried out in duplicate in 96-well polypropylene plates. The cell membranes (5 to 20 µg of proteins/well) are incubated with [125I-Tyr11]SRIF-14 (0.05 to 0.1 nM) for 50 to 90 minutes at 37° C. (conditions dependent on the sub-type of receptor) in a HEPES buffer medium 50 mM pH 7.4, comprising 0.2% bovine serum albumin (BSA), MgCl2 5 mM, Trasylol 200 KIU/mL, Bacitracin 0.02 mg/mL, phenylmethylsulphonyl fluoride 0.02 mg/mL.
(§4) The bound [125I-Tyr11]SRIF-14 is separated from the free [125I-Tyr11]SRIF-14 by filtration through GF/C glass fibre plates (Unifilter, Perkin Elmer) pre-impregnated with 0.1% polyethylenimine (P.E.I.), using a Filtermate 96 (Perkin Elmer). The filters are washed with Tris-HCl buffer 50 mM, pH 7.4 at 4° C. and the radioactivity present is determined using a counter (TopCount, Perkin Elmer).
(§5) The data are analyzed by computer-assisted non-linear regression using XLfit 4.2 (IDBS) software.

Data set [3] deals with T2, somatostatin receptors sub-type 2 (Homo sapiens, UniProt P30874).
T2 construct: expressed in transfected cells; membrane preparations
T2 sequence (P30874 whole entry): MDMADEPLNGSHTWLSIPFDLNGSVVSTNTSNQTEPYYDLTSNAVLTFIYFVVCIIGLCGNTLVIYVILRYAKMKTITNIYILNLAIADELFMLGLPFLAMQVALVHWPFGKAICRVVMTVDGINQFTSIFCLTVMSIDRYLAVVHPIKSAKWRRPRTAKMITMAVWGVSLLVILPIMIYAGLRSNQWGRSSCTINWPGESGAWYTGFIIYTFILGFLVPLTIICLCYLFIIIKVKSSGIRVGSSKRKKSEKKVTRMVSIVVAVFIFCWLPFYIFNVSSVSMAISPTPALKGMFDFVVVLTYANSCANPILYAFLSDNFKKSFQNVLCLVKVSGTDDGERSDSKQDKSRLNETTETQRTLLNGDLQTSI
The description is as above. The conditions noted are these: competitive inhibition of [125I-Tyr11]SRIF-14 binding, 37° C. The protocol: as §1, §2, §3, §4, §5

T1 sequence (P35346 whole entry): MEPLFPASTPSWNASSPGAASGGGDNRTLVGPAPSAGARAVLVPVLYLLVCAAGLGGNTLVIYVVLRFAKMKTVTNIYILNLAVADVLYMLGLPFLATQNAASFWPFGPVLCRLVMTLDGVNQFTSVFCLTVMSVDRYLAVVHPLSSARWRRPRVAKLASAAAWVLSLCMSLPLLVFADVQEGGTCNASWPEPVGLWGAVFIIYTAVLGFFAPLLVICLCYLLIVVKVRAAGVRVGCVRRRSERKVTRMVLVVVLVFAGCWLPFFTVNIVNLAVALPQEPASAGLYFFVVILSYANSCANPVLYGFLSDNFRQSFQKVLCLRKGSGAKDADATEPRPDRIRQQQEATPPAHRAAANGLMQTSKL

With `COCCOCCOc1ccc(C[C@H]2NC(=O)[C@H](Cc3ccc(O)cc3)NC(=O)[C@@H](NC(=O)[C@H](N)Cc3ccc4ccccc4c3)CSSC[C@@H](C(=O)N[C@H](C(N)=O)[C@@H](C)O)NC(=O)[C@H](C(C)C)NC(=O)[C@H](CCCCN)NC2=O)cc1` [Example 22, H-D-2-Nal^1-cyclo(Cys^2-Tyr^3-p-2-(2-methoxyethoxy)ethoxy)-D-Phe^4-Lys^5-Val^6-Cys^7)-Thr^8-NH2].2 CH3COOH], the Assembly in data set [1] is on record as 17.4 nm monodisperse nanotube.

In data set [1], `CC(C)[C@H]1NC(=O)[C@@H](CCCCN)NC(=O)[C@H](Cc2c[nH]c3ccccc23)NC(=O)[C@@H](Cc2ccc(O)cc2)NC(=O)[C@H](NC(=O)[C@@H](N)Cc2ccc3ccccc3c2)CSSC[C@H](C(=O)N[C@@H](C(N)=O)C(C)O)NC1=O` (stereo partly drawn) [Example 23, H-2-Nal^1-cyclo(D-Cys^2-D-Tyr^3-Trp^4-D-Lys^5-D-Val^6-D-Cys^7)-D-Thr^8-NH2.2 CH3COOH] (H-[2Nal][dC][dY]W[dK][dV][dC][dThr(3ξ)]-NH2; disulfide 2-7) yielded an Assembly of 24.4 nm monodisperse nanotube.

On to `CC(C)[C@@H]1NC(=O)[C@H](CCCCN)NC(=O)[C@@H](C(C)C)NC(=O)[C@H](Cc2ccc(O)cc2)NC(=O)[C@@H](NC(=O)[C@H](N)Cc2ccc3ccccc3c2)CSSC[C@@H](C(=O)N[C@H](C(N)=O)C(C)O)NC1=O` (stereo partly drawn) [Example 5, H-D-2-Nal^1-cyclo(Cys^2Tyr^3-D-Val^4-Lys^5-Val^6Cys^7)-Thr^8-NH2.2 CH3COOH] (H-[d2Nal]CY[dV]KVC[Thr(3ξ)]-NH2; disulfide 2-7), for which, in data set [1], the Assembly result is listed as “soluble”. In addition, the results for the Ki in data set [2] and in data set [3] were no more than 5000 nM and no more than 700 nM, respectively.

With `CC(C)[C@@H]1NC(=O)[C@H](CCCCN)NC(=O)[C@@H](Cc2ccc(O)cc2)NC(=O)[C@H](Cc2ccc(O)cc2)NC(=O)[C@@H](NC(=O)[C@H](N)Cc2ccc3ccccc3c2)CSSC[C@@H](C(=O)N[C@H](C(N)=O)C(C)O)NC1=O` (stereo partly drawn) [Example 14, H-D-2-Nal^1-cyclo(Cys^2-Tyr^3-D-Tyr^4-Lys^5-Val^6-Cys^7)-Thr^8-NH2.2 CH3COOH] (H-[d2Nal]CY[dY]KVC[Thr(3ξ)]-NH2; disulfide 2-7), the Assembly entry in data set [1] is “monodisperse peptide nanotubes and 18 nm monodisperse nanotube”. Besides, the inhibition constant (Ki) in data set [2] was no more than 1000 nM; in data set [3], no more than 5 nM.

As for `CC(C)[C@@H]1NC(=O)[C@H](CCCCN)NC(=O)[C@@H](Cc2ccc(Br)cc2)NC(=O)[C@H](Cc2ccc(O)cc2)NC(=O)[C@@H](NC(=O)[C@H](N)Cc2ccc3ccccc3c2)CSSC[C@@H](C(=O)N[C@H](C(N)=O)C(C)O)NC1=O` (stereo partly drawn) [Example 12, H-D-2-Nal^1-cyclo(Cys^2-Tyr^3-p-Br-D-Phe^4-Lys^5-Val^6-Cys^7)-Thr^8-NH2.2 CH3COOH] (H-[d2Nal]CY[dPhe(4-Br)]KVC[Thr(3ξ)]-NH2; disulfide 2-7), the Assembly result in data set [1] was “monodisperse peptide nanotubes and 17 nm monodisperse nanotube”. In addition, the Ki in data set [2] was no more than 100 nM; in data set [3], no more than 5 nM.

Take `CC(C)[C@@H]1NC(=O)[C@H](CCCCN)NC(=O)[C@@H](Cc2cccc(Br)c2)NC(=O)[C@H](Cc2ccc(O)cc2)NC(=O)[C@@H](NC(=O)[C@H](N)Cc2ccc3ccccc3c2)CSSC[C@@H](C(=O)N[C@H](C(N)=O)C(C)O)NC1=O` (stereo partly drawn) [Example 18, H-D-2-Nal^1-cyclo(Cys^2-Tyr^3-m-Br-D-Phe^4-Lys^5-Val^6-Cys^7)-Thr^8-NH2.2 CH3COOH] (H-[d2Nal]CY[dPhe(3-Br)]KVC[Thr(3ξ)]-NH2; disulfide 2-7): the Assembly in data set [1] is reported as 18.4-18.8 nm monodisperse. Also, the Ki is no more than 100 nM in data set [2] and no more than 5 nM in data set [3].

For the compound `CC(C)[C@@H]1NC(=O)[C@H](CCCCN)NC(=O)[C@@H](Cc2ccc(/N=N/c3ccccc3)cc2)NC(=O)[C@H](Cc2ccc(O)cc2)NC(=O)[C@@H](NC(=O)[C@H](N)Cc2ccc3ccccc3c2)CSSC[C@@H](C(=O)N[C@H](C(N)=O)[C@@H](C)O)NC1=O` [Example 25, H-D-2-Nal^1-cyclo(Cys^2-Tyr^3-p-phenylazo-D-Phe^4-Lys^5-Val^6-Cys^7)-Thr^8-NH2.2 CH3COOH], in data set [1], the Assembly is reported as 10 nm monodisperse nanotube. Further, the Ki is no more than 1000 nM in data set [2] and no more than 50 nM in data set [3].

For the compound `CC(C)[C@@H]1NC(=O)[C@H](CCCCN)NC(=O)[C@@H](Cc2ccc([N+](=O)[O-])cc2)NC(=O)[C@H](Cc2ccc(O)cc2)NC(=O)[C@@H](NC(=O)[C@H](N)Cc2ccc3ccccc3c2)CSSC[C@@H](C(=O)N[C@H](C(N)=O)C(C)O)NC1=O` (stereo partly drawn) [Example 20, H-D-2-Nal^1-cyclo(Cys^2-Tyr^3-p-nitro-D-Phe^4-Lys^5-Val^6-Cys^7)-Thr^8-NH2.2 CH3COOH] (H-[d2Nal]CY[dPhe(4-NO2)]KVC[Thr(3ξ)]-NH2; disulfide 2-7), the Assembly entry in data set [1] was “monodisperse peptide nanotubes and 17.6 nm monodisperse nanotube”. The Ki in data set [2] was no more than 1000 nM; in data set [3], no more than 5 nM.

Take `CC(C)[C@@H]1NC(=O)[C@H](CCCCN)NC(=O)[C@@H](Cc2cc(F)cc(F)c2)NC(=O)[C@H](Cc2ccc(O)cc2)NC(=O)[C@@H](NC(=O)[C@H](N)Cc2ccc3ccccc3c2)CSSC[C@@H](C(=O)N[C@H](C(N)=O)C(C)O)NC1=O` (stereo partly drawn) [Example 17, H-D-2-Nal^1-cyclo(Cys^2-Tyr^3-3,5-diF-D-Phe^4-Lys^5-Val^6-Cys^7)-Thr^8-NH2.2 CH3COOH] (H-[d2Nal]CY[dPhe(3,5-F2)]KVC[Thr(3ξ)]-NH2; disulfide 2-7): the Assembly result in data set [1] is “monodisperse peptide nanotubes and 15.3 nm monodisperse nanotube”. In addition, the inhibitory constant (Ki) is no more than 100 nM in data set [2] and no more than 5 nM in data set [3].

`CC(C)[C@@H]1NC(=O)[C@H](CCCCN)NC(=O)[C@@H](Cc2ccccc2Br)NC(=O)[C@H](Cc2ccc(O)cc2)NC(=O)[C@@H](NC(=O)[C@H](N)Cc2ccc3ccccc3c2)CSSC[C@@H](C(=O)N[C@H](C(N)=O)C(C)O)NC1=O` (stereo partly drawn) [Example 19, H-D-2-Nal^1-cyclo(Cys^2-Tyr^3-o-Br-D-Phe^4-Lys^5-Val^6-Cys^7)-Thr^8-NH2.2 CH3COOH] (H-[d2Nal]CY[dPhe(2-Br)]KVC[Thr(3ξ)]-NH2; disulfide 2-7): the values for the Ki in data set [2] and in data set [3] were no more than 100 nM and no more than 5 nM, respectively.
